Counter-ions that a name gives are not always drawn.

For one test, the system named is MOLM-14 cell line. Put plainly: CellTiter-Glo cell viability / growth inhibition assay, MOLM-14 (Example 5). The test is classed as cell-based. To be noted: Homo sapiens, 72 h. The procedure: (§1) All cell lines were maintained in medium containing 1% penicillin-streptomycin (Dutscher, P06-07100) and 10% Fetal Bovine Serum (Gibco, W3387L) except 20% for KG-1 cell line and PBMC, and cultured at 37° C. with 5% CO2.
MOLM-14 cell line was maintained in MEM alpha medium (Gibco, 22561-021).
(§2) Cell viability was measured using the CellTiter-Glo® luminescent cell viability assay as described by the manufacturer (Promega, Ref G7571) using an Infinite F200Pro luminometer (Tecan). Briefly, for adherent cells, cells were plated onto 96-well plates (white with clear bottom) in 90 μL of media per well and were allowed to grow overnight before the assay. For cells growing in suspension, cells were plated onto 96-well plates immediately before the assay.
Compounds were added at different concentrations to each well, and cell cultures were incubated for 72 h. Vehicle (H2O) was used as a control, and all compounds were tested in a constant percentage of H2O. After addition of 100 μL of CellTiter-Glo®, luminescence was measured using an Infinite F200Pro (Tecan). EC50 values were determined as the dose of compound required to reduce luminescent values to 50% of the signal obtained for untreated cell cultures. The experimental data were analyzed using a computer program, Graphpad Prism v5 (GraphPad Software, Inc. La Jolla, Calif.).
All experiments were at least done in duplicate and repeated two independent times.
For orientation: ATP-based viability assays read luminescence as a measure of living cells.

A further test relates to HepG2 cell line. Put plainly: CellTiter-Glo growth inhibition assay, HepG2. To be noted: Homo sapiens; HepG2, hepatocellular carcinoma, 72 h. It is filed as cell-based. The procedure: as §1
(§3) HepG2, Huh7, HCT-116, MDA-MB-231 and A375 cell lines were cultured in Dulbecco's modified Eagle's medium (Dutscher, L0103).
as §2
(§4) Compounds were added at different concentrations to each well, and cell cultures were incubated for 72 h. Vehicle (H2O) was used as a control, and all compounds were tested in a constant percentage of H2O. After addition of 100 μL of CellTiter-Glo®, luminescence was measured using an Infinite F200Pro (Tecan). EC50 values were determined as the dose of compound required to reduce luminescent values to 50% of the signal obtained for untreated cell cultures. The experimental data were analyzed using a computer program, Graphpad Prism v5 (GraphPad Software, Inc. La Jolla, Calif.). […]

The test system of the next test is MDA-MB-231 cell line. The test is described as follows: CellTiter-Glo growth inhibition assay, MDA-MB-231. It is filed as cell-based. To be noted: Homo sapiens; MDA-MB-231, breast adenocarcinoma, 72 h. The procedure: as §1, §3, §2, §4
Test [1] has as its system ALDH+ (CSC) population of MOLM-14 cell line. Put plainly: Aldefluor kit assay, ALDH+ compartment in MOLM-14. The test is classed as cell-based, human. Conditions: 72 h, control = 100. From the text:
Analysis of the of aldehyde dehydrogenase (ALDH) compartment and high activity level of aldehyde dehydrogenase activity (ALDH+) was used to detect tumor initiating cells (cancer stem cells, CSC) population. The Aldefluor™ kit assay (StemCell Technologies, 01700) allowed to assess the activity of drugs on CSC cells like in a MOLM-14 acute myeloid leukemia cell line population (ref: Storms, R. W., Trujillo, A. P., Springer, J. B., Shah, L., Colvin, O. M., Ludeman, S. M., & Smith, C. (1999). Isolation of primitive human hematopoietic progenitors on the basis of aldehyde dehydrogenase activity. Proceedings of the National Academy of Sciences, 96(16), 9118-9123). The Aldefluor™ kit assay was used according to the procedure described by the manufacturer. Briefly, MOLM-14 cell line was cultured in MEM alpha medium supplemented with 10% v/v Fetal Bovine Serum, 1% Penicillin-Streptomycin and maintained at 37° C. with 5% CO2. 5·10^5 cells were used in this assay. Each compound was added at different concentrations (see table 8), and cell cultures were incubated for 72 h. Vehicle (H2O) was used as a control, and all compounds were tested in a constant percentage of vehicle. Cells obtained from cell culture were incubated for 45 minutes at 37° C. with Aldefluor™ buffer assay containing the Bodipy™-aminoacetaldehyde, a fluorescent ALDH aldehyde substrate. ALDH converts the fluorescent substrate BAAA to the Bodipy™-aminoacetic acid (BAA) which is retained in the cell. An active efflux inhibitor is present in the Adelfluor™ assay buffer in order to avoid the active efflux from the cell of the substrate product ALDH dependent converted BAA. The fluorescent signal is directly proportional to the ALDH activity in the cells and is measured by flow cytometry. A negative control is used to measure the background fluorescence level. For such purpose, 4-(N,N-diethylamino)-benzaldehyde (DEAB) was used as selective ALDH inhibitor. A viability cell count was performed using LIVE/DEAD® Fixable Far Red Dead Cell Stain Kit (Invitrogen). The experimental data are analyzed using a computer program, Graphpad Prism v5 (GraphPad Software, Inc. La Jolla, Calif.) and EC50 values were determined as the dose of compound required to reduce absorbance values to 50% of the signal obtained for vehicle treated cell cultures.

The subject of test [2] is LI0752 HCC patient derived cells. Put plainly: CellTiter-Glo growth inhibition, HCC patient-derived cells LI0752. It is filed as cell-based, human. To be noted: Homo sapiens; LI0752, 72 hours. The procedure: The patient derived Hepatocellular Carcinoma (HCC) cells were maintained in medium respectively described in table 15 containing 1% penicillin-streptomycin (Life Technologies, 15070-063), with a supplements for primary cell culture (PCS) containing hydrocortisone (50 nM), Epidermal Growth Factor (20 ng/ml), β-fibroblast Growth Factor (10 ng/ml), Heparin (2 μg/ml) ITS liquid media supplement (1×) and non-essential amino acid (NEAA, 0.01 mM, 1×). The primary cell were cultured in a humidified atmosphere (95% relative humidity) with 5% CO2 at 37° C.
The cell growth inhibition assay was performed as described previously in example 5 using the CellTiter-Glo® luminescent cell viability assay as described by the manufacturer (Promega, Ref G7571). The number of cells seeded per well (in 96-Well Flat Clear Bottom Black Polystyrene TC-Treated Microplates, Cat #3340, Corning®) is described in the table 16. A backseal black sticker (Cat #6005189, Perkin Elmer) was placed to the bottom of each plate before recording CellTiter-Glo® luminescence.
The experimental data are analyzed using a computer program, Graphpad Prism V 5.0 (GraphPad Software, Inc. La Jolla, Calif.) and EC50 values were determined as the dose of compound required to reduce absorbance values to 50% of the signal obtained for vehicle treated cell cultures and were a mean of at least three independent experiments.

By viability is commonly meant the share of living cells, or the viability signal relative to a control. As usually defined, the EC50 is the concentration giving half of the maximal effect. Low values mean higher potency in that assay, high ones lower potency in that assay. As to `CC(C)(C)NC1CCN(c2cc(NCc3ccc(Cl)cc3)nc3ccccc23)CC1` [Compound 2-3, 2-(4-chlorobenzylamino)-4-(4-tert-butylaminopiperidin-1-yl)-quinoline hydrochloride salt], in the test on MOLM-14 cell line (MOLM-14, 4 μM), the viability at 4 µM was 31.8%. Further, in the test with MOLM-14 cell line (MOLM-14, 10 μM), the viability at 10 µM worked out at 0.3%. The EC50 with MOLM-14 cell line (MOLM-14, acute myeloïd leukemia, FLT3-ITD heterozygote+/−) is 2200 nM; in the test on HepG2 cell line, 900 nM; in the test with MDA-MB-231 cell line it was 2000 nM; in test [2], 500 nM. Further, the “ALdefluor positive CSCs (%)” value is on record as 100% in test [1] (MOLM-14, 2.5 μM); 80% in test [1] (MOLM-14, 5.0 μM); 20% in test [1] (MOLM-14, 7.5 μM).

The values are drawn from patent US10722505B2, “Substituted 2,4 diamino-quinoline as new anticancer agents” (GENOSCIENCE PHARMA, priority 2014, dated 2020).
